From patent US20110003849A1, “SOLUBLE EPOXIDE HYDROLASE INHIBITORS, COMPOSITIONS CONTAINING SUCH COMPOUNDS AND METHODS OF TREATMENT” (priority 2008, published 2011) come the findings set out here.

The assay concerns the target T1, human sEH enzyme (Homo sapiens, UniProt P34913).
T1 construct: His-tag (N, cleaved yes); made in house; host or cells: E. coli (pET100 vector)
T1 sequence (P34913 1-555): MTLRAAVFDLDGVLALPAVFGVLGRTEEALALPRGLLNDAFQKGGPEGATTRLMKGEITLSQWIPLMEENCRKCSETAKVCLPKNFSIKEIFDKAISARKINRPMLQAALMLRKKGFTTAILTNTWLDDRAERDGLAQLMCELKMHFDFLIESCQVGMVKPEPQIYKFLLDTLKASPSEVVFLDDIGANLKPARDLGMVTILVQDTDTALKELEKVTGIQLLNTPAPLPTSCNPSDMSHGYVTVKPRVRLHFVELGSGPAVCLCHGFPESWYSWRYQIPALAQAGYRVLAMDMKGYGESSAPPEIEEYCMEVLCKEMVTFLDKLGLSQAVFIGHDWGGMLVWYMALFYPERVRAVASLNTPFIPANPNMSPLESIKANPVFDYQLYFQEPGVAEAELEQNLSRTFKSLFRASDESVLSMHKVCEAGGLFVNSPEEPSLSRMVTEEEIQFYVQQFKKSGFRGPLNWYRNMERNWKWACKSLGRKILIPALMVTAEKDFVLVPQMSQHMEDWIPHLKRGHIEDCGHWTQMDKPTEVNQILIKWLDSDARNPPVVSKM
As to the kind of experiment: sEH Human Enzyme Assay (fluorescence based enzyme in vitro assay). The format is biochemical. Particulars: recombinant full length human sEH about 1 nM, fluorescence substrate S7 10 uM, pH7.0, 25° C.; read-out: IC50 [nM] for human sEH enzyme inhibition. From the text:
Preparation of Recombinant sEH Human Enzyme
The DNA for expressing sEH was designed based on a […] sEH cDNA, modified to optimize for expression both in E. coli and insect cells. The designed DNA fragment encodes a protein sequence that is identical to full length human sEH, and the DNA was synthesized in vitro. The DNA was then subcloned into the pET100 vector that will generate a fusion protein with an N-terminal His-tag. The recombinant protein was expressed in E. coli. The sEH enzyme was affinity purified by a Ni^++ column. His-tag was removed by Enter Kinase (EK) digestion. The purified enzyme aliquots were frozen and held at −80° C. for later use.
Fluorescence Based Enzyme In Vitro Assay,
For each assay (100 ul), an aliquot of enzymes (about 1 nM final concentration) was incubated with a fluorescence substrate, S7 (10 uM final concentration), in sEH assay buffer (25 mM HEPES, pH7.0, 0.1 mg/ml BSA) in a 96-well plate. The kinetic reaction reading (Ex330/Em465) was conducted using a plate reader, Spectra max (Molecular Devices) at 25° C.
Take `Cc1noc(C2CC3CC2N(C(=O)Nc2ccc(C(F)(F)F)cc2)C3)n1` (stereo not shown) [Example 1]: the half-maximal inhibitory concentration (IC50) – broadly, the concentration at which inhibition is half-maximal – is 7 nM. To `Cc1noc(C2CC3CCC2N(C(=O)Nc2ccc(C(F)(F)F)cc2)C3)n1` (stereo not shown) [Example 2] belongs 2 nM.

On to `Cc1noc(C2(C)CC3CCC2N(C(=O)Nc2ccc(C(F)(F)F)cc2)C3)n1` (stereo not shown) [Example 3], for which the IC50 came to 2 nM.

With `CC(c1ccccc1)c1noc(C2CC3CCC2N(C(=O)Nc2ccc(C(F)(F)F)cc2)C3)n1` (stereo not shown) [Example 4], the IC50 stood at 8 nM.

Take `CCc1noc(C2CC3CCC(C2)N3C(=O)Nc2ccc(C(F)(F)F)cc2)n1` (stereo not shown) [Example 5]: the IC50 stood at 2 nM. Take `CN(C)c1noc(C2CC3CCC2N(C(=O)Nc2ccc(C(F)(F)F)cc2)C3)n1` (stereo not shown) [Example 6]: the IC50 was determined as 1 nM. For `CCOc1noc(C2CC3CCC2N(C(=O)Nc2ccc(C(F)(F)F)cc2)C3)n1` (stereo not shown) [Example 7] the value was 2 nM; for `O=C(Nc1ccc(C(F)(F)F)cc1)N1CC2(c3ccccc3)CCC1CC2` [Example 9], 1 nM. For `O=C(Nc1ccc(Cl)cc1)N1CC2(c3ccccc3)CCC1C2` (stereo not shown) [Example 10] the value was 1 nM; for `O=C(Nc1ccc(C(F)(F)F)cc1)N1C2CCC1C(c1cccnc1)C2` (stereo not shown) [Example 11], 11 nM; for `O=C(Nc1ccc(C(F)(F)F)cc1)N1C2CCC1C(c1cccnc1)C2` (stereo not shown) [Example 12], 41 nM. For `CN(C)c1noc(C2CC3CCC2N(C(=O)NC2CC2c2ccccc2)C3)n1` (stereo not shown) [Example 13] the value was 51 nM; for `O=C(NC1CC1c1ccccc1)N1CC2CCC1C(c1nc(C3CC3)no1)C2` (stereo not shown) [Example 14], 18 nM. `CCOc1noc(C2CC3CCC2N(C(=O)NC2CC2c2ccccc2)C3)n1` (stereo not shown) [Example 15]: the IC50 is 14 nM. With `Cc1noc(C2(C)CC3CCC2N(C(=O)NC2CC2c2ccccc2)C3)n1` (stereo not shown) [Example 16], the 50% inhibitory concentration (IC50) turned out to be 30 nM.

`CCc1noc(C2CC3CC2N(C(=O)NC2CC2c2ccccc2)C3)n1` (stereo not shown) [Example 17]: the half-inhibitory concentration (IC50) was 48 nM. Regarding `O=C(NC1CC1c1ccccc1)N1CC2CCC1C(c1nc(C(c3ccccc3)c3ccccc3)no1)C2` (stereo not shown) [Example 18], the IC50 came out at 6 nM.

`Cn1cc(-c2noc([C@@H]3C[C@H]4CC[C@H]3CN4C(=O)NC3CC3c3ccccc3)n2)c2ccccc21` (stereo partly shown) [Example 19]: the IC50 was found to be 4 nM. For `Cn1cc(-c2noc(C3(C)CC4CCC3N(C(=O)NC3CC3c3ccccc3)C4)n2)c2ccccc21` (stereo not shown) [Example 20] the value was 8 nM.
